Reference: patent US7674819B2 (Warner-Lambert Company LLC, priority 2005, dated 2010)

Tested on: male Syrian hamsters
Test: Animal Model for Inhibition of Sebum Production (hamster ear, HPLC of sebum lipids)
Assay type: in vivo, Syrian hamster
Details: twice daily, five days a week, 4 weeks; for % CE reduction: cholesterol ester vs vehicle control; for % WE reduction: wax ester vs vehicle control
Experimental: Luderschmidt et al describes an animal model for testing whether compounds are capable of modulating sebum secretion. Arch. Derm. Res. 258, 185-191 (1977). This model uses male Syrian hamsters, whose ears contain sebaceous glands. Based on binding data and cellular assay data, selected compounds were chosen for screening in this model. Those compounds included the products of Examples 1, 20, 81, 82, and 109.
Testing for sebum inhibition was carried out in the following manner. Male Syrian hamsters aged 9 to 10 weeks were introduced into the laboratory environment and acclimated for 2 weeks prior to use in the study. Each group consisted of 5 animals and run in parallel with vehicle and positive controls. Prior to administration, a sufficient quantity each compound was dissolved in 1 mL of a solvent consisting of ethanol, transcutol, and propylene glycol (60/20/20% v/v/v) to achieve the final concentration specified in Table VIII below.
Animals were dosed topically twice daily, five days a week, for 4 weeks. Each dose consisted of 25 micro liters of vehicle control or drug. The dose was applied to the ventral surfaces of both the right and left ears. All animals were sacrificed approximately 18-24 hours after the final dose. The right ears were collected from each animal and used for sebum analysis.
The ears were prepped for HPLC analysis in the following manner. One 8 mm distal biopsy punch was taken, just above the anatomical “V” mark in the ear to normalize the sample area. The punch was pulled apart. The ventral biopsy surface (the area where the topical dose was directly applied to the sebaceous glands) was retained for testing and the dorsal surface of the biopsy punch was discarded.
Tissue samples were blown with N2 gas and stored at −80° C. under nitrogen until HPLC analysis. In addition to ear samples, an aliquot of each drug and vehicle (at least 250 ul) was also stored at −80° C. for inclusion in the HPLC analysis.
HPLC analysis was carried out on an extract of the tissue sample. Tissue samples were contacted with 3 ml of solvent (a 4:1 admixture of 2,2,4-trimethylpentane and isopropyl alcohol). The mixture was shaken for 15 minutes and stored overnight at room temperature, protected from light. The next morning 1 milliliter of water was added to the sample and shaken for 15 minutes. The sample was then centrifuged at approximately 1500 rpm for 15 minutes. Two ml of the organic phase (top layer) was transferred to a glass vial, dried at 37° C., under nitrogen, for approximately 1 hour, and then lyophilized for approximately 48 hours. The samples were then removed from the lyophilizer and each vial was reconstituted with 600 μl of solvent A (trimethylpentane/tetrahydrofuran (99:1). The samples were then recapped and vortexed for 5 minutes.
200 μl of each sample was then transferred to a pre-labeled 200 μl HPLC vial with 200 μL glass inserts. The HPLC vials were placed in the autosampler tray for the Agilent 1100 series HPLC unit. The Agilent 1100 HPLC system consisted of a thermostated autosampler, a quaternary pump, a column heater, and an A/D interface module. All components were controlled by Agilent ChemStation software. A Waters Spherisorb S3W 4.6×100 mm analytical column was maintained at 30° C. by the Agilent column heater unit.
The HPLC autosampler was programmed to maintain the sample temperature at 20 C throughout the run.
10 uL of each sample was injected in triplicate into the column. Two solvents were used for the solvent gradient. Solvent A was an admixture of trimethylpentane and tetrahydrofuran (99:1). Solvent B was ethylacetate. The gradient utilized is described in the table below: […]
The Sedex 75 Evaporative Light Scattering Detector (ELSD) was operated at 45° C. with a gain of 5, and N2 pressure maintained at 3.1 bar. Analog signal obtained by the instrument was sent to the Agilent A/D interface module where it was converted to a digital output. […]

Row | SMILES | % CE reduction (topical 1%) | Sum of WE & CE (topical 1%) | % WE reduction (topical 1%) | further results
1 | CCCCN1CC(C)(C)C(Oc2ccc(C#N)c(C(F)(F)F)c2)C1=O (single isomer, unassigned; (+)) [Example 20, (+)-4-(1-Butyl-4,4-dimethyl-2-oxo-pyrrolidin-3-yloxy)-2-trifluoromethyl-benzonitrile] | – | – | – | % CE reduction (topical 2%): 83%; Sum of WE & CE (topical 2%): 149; % WE reduction (topical 2%): 66%
2 | CCCS(=O)(=O)N1CC(C)(C)C(Oc2ccc(C#N)c(C(F)(F)F)c2)C1=O (single isomer, unassigned; (+)) [Example 82, (+)-4-[4,4-Dimethyl-2-oxo-1-(propane-1-sulfonyl)-pyrrolidin-3-yloxy]-2-trifluoromethyl-benzonitrile] | 72% | 129 | 57% | –
3 | CC[C@H](C)N1CC(C)(C)[C@@H](Oc2ccc(C#N)c(C(F)(F)F)c2)C1=O [Example 1, (3R,S)-(+)-4-(1-sec-Butyl-4,4-dimethyl-2-oxo-pyrrolidin-3-yloxy)-2-trifluoromethyl-benzonitrile] | 70% | 125 | 55% | –
4 | CCCN1CC(C)(C)C(Oc2ccc(C#N)c(C(F)(F)F)c2)C1=O (stereo not drawn) [Example 4, 4-(4,4-dimethyl-2-oxo-1-propyl-pyrrolidin-3-yloxy)-2-trifluoromethyl-benzonitrile] | – | – | – | % CE reduction (topical 3%): 76%; Sum of WE & CE (topical 3%): 166; % WE reduction (topical 3%): 90%
5 | CCCN1CC(C)(C)[C@@H](Oc2ccc(C#N)c(C(F)(F)F)c2)C1=O [Example 4A, (+)-4-(1-Propyl-4,4-dimethyl-2-oxo-pyrrolidin-3-yloxy)-2-trifluoromethyl-benzonitrile (E2)] | 76% | 161 | 85% | –
6 | CC1(C)CN(S(C)(=O)=O)C(=O)C1Oc1ccc(C#N)c(C(F)(F)F)c1 (stereo not drawn) [Example 81, 4-(1-methanesulfonyl-4,4-dimethyl-2-oxo-pyrrolidin-3-yloxy)-2-trifluoromethyl-benzonitrile] | 12% | 20 | 8% | –
7 | CC(c1ccccc1)N1CC(C)(C)C(Oc2ccc(C#N)cc2Cl)C1=O (stereo not drawn) [Example 109] | 64% | 116 | 52% | –
